# Patent publication US10981932B2, “Macrocyclic indole derivatives” (Bayer Aktiengesellschaft, priority 2016, dated 2021)
# Like-named read-outs stand apart in the source and are kept apart here.
# Legend:
# SUDHL5 [1] = experiment: Induction of caspase-3/7 activity (Caspase-Glo 3/7), SUDHL5; type: cell-based; conditions: caspase-3/7 induction, SUDHL5 cells, 3 h treatment, median
# Procedure, shortened: (§1)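 Caspase-Glo 3/7 luminescence, 3 h compound exposure, 37 °C, humidified. Minus medium-only blank. EC50 fit: C0=1, plateau = reference max induction.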
# SUDHL10 [2] = experiment: Induction of caspase-3/7 activity (Caspase-Glo 3/7), SUDHL10; type: cell-based; conditions: caspase-3/7 induction, SUDHL10 cells, 3 h treatment, median
# Procedure, shortened: as §1
# SUDHL5 [3] = experiment: Anti-proliferative effect (CellTiter-Glo, 72 h), SUDHL5; type: cell-based; conditions: SUDHL5 cells, antiproliferation, 72 h incubation, median, read-out: Antiproli SUDHL5 [M] (median)
# Procedure, shortened: (§2)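 CTG luminescence read-out after 72 h compound exposure, 37 °C, humidified. Time-zero reference plate read at plating.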
# SUDHL10 [4] = experiment: Anti-proliferative effect (CellTiter-Glo, 72 h), SUDHL10; type: cell-based; conditions: SUDHL10 cells, antiproliferation, 72 h incubation, median, read-out: Antiproli SUDHL10 [M] (median)
# Procedure, shortened: as §2
# OPM2 = experiment: Anti-proliferative effect (CellTiter-Glo, 72 h), OPM2; type: cell-based; conditions: OPM2 cells, median, read-out: IC50 antiproliferation assay OPM2 [M] (median)
# Procedure, shortened: as §2
# A2780 = experiment: Anti-proliferative effect (CellTiter-Glo, 72 h), A2780; type: cell-based; conditions: A2780 cells, median, read-out: IC50 antiproliferation assay A2780 [M] (median)
# Procedure, shortened: as §2
# SUDHL5 [5] = experiment: Induction of cytotoxicity (CellTiter-Glo, 5 h), SUDHL5
# SUDHL10 [6] = experiment: Induction of cytotoxicity (CellTiter-Glo, 5 h), SUDHL10
# MCL-1 = MCL-1 (Homo sapiens, UniProt Q07820); experiment: Protein-protein interaction assay MCL-1/Noxa BH3 peptide (MCL-1 assay), TR-FRET; type: binding; conditions: MBP-MCL-1 / Noxa BH3-derived peptide, median
# Procedure, shortened: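 Displacement of the biotinylated Noxa BH3 peptide from MBP-tagged human MCL-1 (1 nM) is detected by time-resolved FRET. Compounds are tested in duplicate across eleven concentrations up to 20 μM, incubated 1 h at 22 °C and overnight at 4 °C, and IC50 is fitted with a four-parameter equation.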
# [7] = Homo sapiens, SU-DHL-5, 5 h, read-out: Cytotox SUDHL5 [M] (median), SUDHL5 cells, cytotoxicity induction, CellTiter-Glo, 5 h incubation, median
# [8] = Homo sapiens, SU-DHL10, 5 h, read-out: Cytotox SUDHL10 [M] (median), SUDHL10 cells, cytotoxicity induction, CellTiter-Glo, 5 h incubation, median
# [9] = read-out: Cytotox SUDHL5 [M] (median), SUDHL5 cells, cytotoxicity induction, CellTiter-Glo, 5 h incubation, median
# [10] = read-out: Cytotox SUDHL10 [M] (median), SUDHL10 cells, cytotoxicity induction, CellTiter-Glo, 5 h incubation, median
# MCL-1, sequence (Q07820 whole entry): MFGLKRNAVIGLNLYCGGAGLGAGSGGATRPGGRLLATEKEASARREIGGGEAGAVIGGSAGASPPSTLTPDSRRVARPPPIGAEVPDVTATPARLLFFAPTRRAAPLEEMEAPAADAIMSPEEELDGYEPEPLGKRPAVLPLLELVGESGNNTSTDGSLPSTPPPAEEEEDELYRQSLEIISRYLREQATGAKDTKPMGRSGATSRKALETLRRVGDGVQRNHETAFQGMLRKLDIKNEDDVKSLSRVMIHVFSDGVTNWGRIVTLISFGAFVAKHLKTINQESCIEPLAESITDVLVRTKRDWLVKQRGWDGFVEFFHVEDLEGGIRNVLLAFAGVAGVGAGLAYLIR
"EC50 (SUDHL5 [1]; Homo sapiens, SU-DHL-5, 3 h) [µM]","EC50 (SUDHL10 [2]; Homo sapiens, SU-DHL10, 3 h) [µM]","IC50 (SUDHL5 [3]; Homo sapiens, SU-DHL-5, 72 h) [M]","IC50 (SUDHL10 [4]; Homo sapiens, SU-DHL10, 72 h) [M]","IC50 (A2780; Homo sapiens, A2780, 72 h) [M]",IC50 (MCL-1) [µM],EC50 (SUDHL5 [1]) [µM],EC50 (SUDHL10 [2]) [µM],IC50 (SUDHL5 [3]) [M],IC50 (SUDHL10 [4]) [M],IC50 (A2780) [M],Compound,"IC50 (OPM2; Homo sapiens, OPM-2, 72 h) [M]",IC50 (SUDHL5 [5]; [7]) [M],IC50 (SUDHL10 [6]; [8]) [M],IC50 (OPM2) [M],IC50 (SUDHL5 [5]; [9]) [M],IC50 (SUDHL10 [6]; [10]) [M]
1.22,1.94,9.33e-07,1.33e-06,8.79e-06,–,–,–,–,–,–,"CN(C)S(=O)(=O)N1CCN(c2ccc(OCc3nn(C)c4c3-c3cccc5c(CCCOc6cccc7ccccc67)c(C(=O)O)n(c35)CCCCOC4)cc2)CC1 (racemic) [Example 1-18, (rac)-3-({4-[4-(dimethylsulfamoyl)piperazin-1-yl]phenoxy}methyl)-1-methyl-7-[3-(naphthalen-1-yloxy)propyl]-1,10,11,12,13,15-hexahydropyrazolo[4′,3′:9,10][1,6]oxazacycloundecino[8,7,6-hi]indole-8-carboxylic Acid]",1.57e-06,1.75e-06,2.29e-06,–,–,–
> 33,> 33,2.96e-05,1.52e-05,–,0.188,–,–,–,–,–,"Cn1nc(COc2ccccc2)c2c1COCC=CCn1c(C(=O)O)c(CCCOc3cccc4ccccc34)c3cccc-2c31 (single isomer, unassigned) [Example 1-77, (E/Z)-1-methyl-7-[3-(naphthalen-1-yloxy)propyl]-3-(phenoxymethyl)-1,10,13,15-tetrahydropyrazolo[4′,3′:9,10][1,6]oxazacycloundecino[8,7,6-hi]indole-8-carboxylic Acid]",> 3.3e-05,> 3.3e-05,> 3.3e-05,–,–,–
–,–,–,–,–,0.905,> 33,> 33,1.79e-05,1.08e-05,–,"Cn1nc(COc2ccccc2)c2c1COCC=CCn1c(C(=O)O)c(CCCOc3cccc4ccccc34)c3cccc-2c31 (single isomer, unassigned) [Example 1-78, (E/Z)-1-methyl-7-[3-(naphthalen-1-yloxy)propyl]-3-(phenoxymethyl)-1,10,13,15-tetrahydropyrazolo[4′,3′:9,10][1,6]oxazacycloundecino[8,7,6-hi]indole-8-carboxylic Acid]",–,–,–,3.06e-05,> 3.3e-05,> 3.3e-05
> 33,> 33,2.77e-05,1.42e-05,–,0.113,–,–,–,–,–,"CN1CCCn2c(C(=O)O)c(CCCOc3cccc4ccccc34)c3cccc(c32)-c2c(COc3ccccc3)nn(C)c2C1 (single isomer, unassigned) [Example 1-82, 7,9-dimethyl-1-[3-(naphthalen-1-yloxy)propyl]-11-(phenoxymethyl)-4,5,6,7,8,9-hexahydropyrazolo[3′,4′:7,8][1,5]diazecino[9,10,1-hi]indole-2-carboxylic Acid]",> 3.3e-05,> 3.3e-05,> 3.3e-05,–,–,–
–,–,–,–,–,0.24,> 33,> 33,2.06e-05,1.12e-05,–,"CN1CCCn2c(C(=O)O)c(CCCOc3cccc4ccccc34)c3cccc(c32)-c2c(COc3ccccc3)nn(C)c2C1 (single isomer, unassigned) [Example 1-83, 7,9-dimethyl-1-[3-(naphthalen-1-yloxy)propyl]-11-(phenoxymethyl)-4,5,6,7,8,9-hexahydropyrazolo[3′,4′:7,8][1,5]diazecino[9,10,1-hi]indole-2-carboxylic Acid]",–,–,–,> 3.3e-05,> 3.3e-05,> 3.3e-05
> 33,> 33,2.5e-05,1.03e-05,–,0.262,–,–,–,–,–,"Cc1cc(OCCCc2c(C(=O)O)n3c4c(cccc24)-c2c(COc4ccccc4)nn(C)c2CN(C)CCC3)cc(C)c1Cl (single isomer, unassigned) [Example 1-85, 1-[3-(4-chloro-3,5-dimethylphenoxy)propyl]-7,9-dimethyl-11-(phenoxymethyl)-4,5,6,7,8,9-hexahydropyrazolo[3′,4′:7,8][1,5]diazecino[9,10,1-hi]indole-2-carboxylic Acid]",> 3.3e-05,> 3.3e-05,> 3.3e-05,–,–,–
–,–,–,–,–,0.278,> 33,> 33,1.96e-05,9.45e-06,–,"Cc1cc(OCCCc2c(C(=O)O)n3c4c(cccc24)-c2c(COc4ccccc4)nn(C)c2CN(C)CCC3)cc(C)c1Cl (single isomer, unassigned) [Example 1-86, 1-[3-(4-chloro-3,5-dimethylphenoxy)propyl]-7,9-dimethyl-1-(phenoxymethyl)-4,5,6,7,8,9-hexahydropyrazolo[3′,4′:7,8][1,5]diazecino[9,10,1-hi]indole-2-carboxylic Acid]",–,–,–,2.43e-05,> 3.3e-05,> 3.3e-05
> 33,32.9,–,1.24e-05,–,0.0479,–,–,2.13e-05,–,–,"CN1CCCn2c(C(=O)O)c(CCCOc3cccc4ccccc34)c3cccc(c32)-c2c(COc3ccc(-n4ccccc4=O)cc3)nn(C)c2C1 (single isomer, unassigned; enantiomer 1) [Example 1-115, 7,9-Dimethyl-1-[3-(1-naphthyloxy)propyl]-1-{[4-(2-oxopyridin-1(2H)-yl)phenoxy]methyl}-4,5,6,7,8,9-hexahydropyrazolo[3′,4′:7,8][1,5]diazecino[9,10,1-hi]indole-2-carboxylic Acid (Enantiomer 1)]",> 3.3e-05,–,> 3.3e-05,–,> 3.3e-05,–
–,–,–,–,–,0.0848,> 33,> 33,8.21e-06,5.63e-06,–,"CN1CCCn2c(C(=O)O)c(CCCOc3cccc4ccccc34)c3cccc(c32)-c2c(COc3ccc(N4CCN(S(=O)(=O)N(C)C)CC4)cc3)nn(C)c2C1 (single isomer, unassigned; enantiomer 2) [Example 1-16, 11-({4-[4-(dimethylsulfamoyl)piperazin-1-yl]phenoxy}methyl)-7,9-dimethyl-1-[3-(naphthalen-1-yloxy)propyl]-4,5,6,7,8,9-hexahydropyrazolo[3′,4′:7,8][1,5]diazecino[9,10,1-hi]indole-2-carboxylic Acid (Enantiomer 2)]",–,–,–,1.15e-05,> 3.3e-05,> 3.3e-05
–,–,–,–,–,0.0177,12.4,9.76,6.96e-06,7.73e-06,1.95e-05,"CN1CCCn2c(C(=O)O)c(CCCOc3cccc4ccccc34)c3cccc(c32)-c2c(CN3CCOCC3)nn(C)c2C1 (single isomer, unassigned; enantiomer 2) [Example 1-44, (−)-7,9-dimethyl-11-(morpholin-4-ylmethyl)-1-[3-(naphthalen-1-yloxy)propyl]-4,5,6,7,8,9-hexahydropyrazolo[3′,4′:7,8][1,5]diazecino[9,10,1-hi]indole-2-carboxylic Acid (Enantiomer 2)]",–,–,–,1.13e-05,1.26e-05,–
> 33,22.4,1.42e-05,6.26e-06,–,0.353,–,–,–,–,–,"Cc1nn(C)c2c1-c1cccc3c(CCCOc4cccc5ccccc45)c(C(=O)O)n(c13)CCCCN2Cc1ccccc1 [Example 002, (rac)-8-benzyl-9,11-dimethyl-1-[3-(1-naphthyloxy)propyl]-4,5,6,7,8,9-hexahydropyrazolo[4′,3′:4,5][1,6]diazecino[3,2,1-hi]indole-2-carboxylic Acid]",> 3.3e-05,2.12e-05,3.18e-05,–,–,–
> 33,29.1,> 3.3e-05,1.54e-05,–,0.0433,–,–,–,–,–,"Cc1nn(C)c2c1-c1cccc3c(CCCOc4cccc5ccccc45)c(C(=O)O)n(c13)CCCCN2 [Example 003, (rac)-9,11-dimethyl-1-[3-(1-naphthyloxy)propyl]-4,5,6,7,8,9-hexahydropyrazolo[4′,3′:4,5][1,6]diazecino[3,2,1-hi]indole-2-carboxylic Acid]",> 3.3e-05,> 3.3e-05,> 3.3e-05,–,–,–
